Columns and labels:
[1] = target: T1, HSA (Homo sapiens, UniProt P02768); assay: Phage clone binding to HSA, specificity ratio by phage titer; design: purchased Sigma; conditions: for Blank control phage titre: single clone eluted from blank control well; for Blank control phage titre / Elute phage titre (HSA-coated well): input 1.16 × 10^12 (HSA-3), 1.34 × 10^13 (HSA-4) pfu/ml; for Elute phage titre (HSA-coated well): single clone
Procedure: After rapid washing three times with TBST (TBS + 0.1% [v/v] Tween-20), 100 µL of the diluted phage library (∼2 × 10^11 phage) was added to the well of the coated plate and rocked gently to let them absorb for 60 min. Following 10 washes with TBST, the bound phages were eluted with 0.2 M Gly-HCl, pH 2.2. The 100 µL that was eluted was neutralized with 15 µL Tris–HCl (1 M, pH 9.1) immediately. A small amount of eluted phage was titered as described above and the rest of elutes were added to 20 ml ER2738 culture (OD 600∼0.5) to be amplified 4.5 h at 37 °C for the next round.
To evaluate the efficiency of the phage display panning procedure, we created two selection criteria: the recovery yield and the specificity ratio. The recovery yield is the ratio of the titer of the eluted phage to the input phage. The specificity ratio is the ratio of the titer of the eluted phage from the target coated well to the blank control well. Recovery Y ield%=Elutephagetiterfromtarget/Inputphagetiter×100 Specificity Ratio=Elutephagetiterfromtarget/Elutephagetiterfromblank.
The amplified culture of phage clones was transferred to a 50 mL centrifuge tube and centrifuged for 10 min at 10,000 rpm at 4 °C with a high-speed refrigerated centrifuge (Himac CR21G). The supernatant was decanted to a fresh tube and precipitated by 1/5 volume of PEG/-NaCl (20% [w/v] Polyethylene Glycol–8000, 2.5 M NaCl) at 4 °C overnight and centrifuged for 20 min at 10,000 rpm. The supernatant was discarded and the sediment containing phage was suspended with TBS. To precipitate the phage again, a 1/5 volume of PEG/NaCl was added to the culture and it was stored at 4 °C for at least 60 min. The PEG suspension was centrifuged for 10 min at 10,000 rpm, the phage precipitate was suspended in 500 µL of TBS.
The sequences of HSA-binding peptides were determined by DNA sequencing of the selected phage using −96 gIII sequencing primer 5′-[…]-3′ in the Ph.D-7 phage library.
The specificity ratio was used to determine if positive phage clones with high HSA-binding affinity were isolated. […] We tested the selected clones with significant specificity ratios as potential HSA-binders, after screening many phage clones that consisted of microplate-surface-binding phages, the specific and non-specific target-binding phages, from the target-binding plate as shown in Table 3. The two selected clones, HSA-3 and HSA-4, show specificity ratios of 7.4 and 9.8, respectively, confirming that our method in the panning process is effective.

[2] = target: T1, HSA; assay: Relative dissociation constant of peptide-fused phage by double-reciprocal plot of phage titers
Procedure: A single E. coli ER2738 colony was inoculated into 10 mL LB-Tet medium and incubated at 37 °C by shaking until mid-log phase (OD600∼0.5) for phage titering. Phage solutions were diluted 10-fold serially in TBS (50 mM Tris–HCl, pH 7.5, 150 mM NaCl) and aliquots of these solutions (50 µL) were added to a suspension of the prepared ER2738 cells (450 µL), 1 for each phage dilution. The phage-infected ER2738 cells (100 µL) were then poured from each dilution tube to an LB-Tet-IPTG-X-gal plate and the plates were incubated overnight at 37 °C. We determined the number of phage particles contained in the original stock phage culture by counting the number of plaques formed on the seeded agar plate and multiplying this by the dilution factor.
The concentration of bound phage [ ϕT] and free phage [ ϕ] can be calculated from the mass conservation equation, where [ ϕ] T is the total concentration of input phage and the concentration of target bound phage [ ϕT] can be estimated by eluted phage concentration [ ϕ] e, which is very much less than [ ϕ] T in our experiment. (6) ϕ=ϕt−ϕe≈ϕt (7) ϕT≈ϕe.
A double reciprocal plot of phage-target affinity measurement is generated by plotting 1/[ ϕ] e as a function of 1/[ ϕ] t. The slope is Kd/[T], the intercept on the vertical axis is 1/[T], and the intercept on the horizontal axis is −1/ Kd. […] (8) 1/ϕe=Kd/Tϕt+1/T.
Then TBST buffer wash the unbound phages, followed by the elution of the bound phages to the well with glycine-HCl, pH2.2. The concentration of input and eluted phage was quantitated by titration. […] These phage-fused peptides were subjected to DNA sequencing and their corresponding heptapeptide sequences are also shown in Table 3.

[3] = target: T2, Human serum albumin (human, UniProt P02768 25-609); assay: phage binding to coated microplate, read by phage titer (specificity ratio); HSA coated in microplate wells, no blocking protein; purified phage clone added, washed with TBST, eluted with Gly-HCl pH 2.2 and titered; ratio of the eluted titer from the HSA well to that from a blank well; conditions: both partners purified
T2 construct: human serum albumin (HSA), bought from Sigma, coated on microplate wells; also called HSA; HSA target; source: bought: Sigma

[4] = target: T2, Human serum albumin; assay: phage binding to coated microplate, read by phage titer (double reciprocal plot); constant HSA coated in microtiter wells, varying input phage until equilibrium, TBST wash, elution with glycine-HCl pH 2.2, input and eluted phage titered; relative dissociation constant = slope/intercept of 1/eluted against 1/input; conditions: both partners purified

## AESQKLN [HSA-3]
[1]
  Blank control phage titre: 1.24 × 10^5 pfu/ml
  Elute phage titre (HSA-coated well): 9.16 × 10^5 pfu/ml
[2]; HSA-3, sample 1, input 1.13×10^14 pfu/L
  Elute phage titer Φe: 7.94×10^6 pfu/L
[2]; HSA-3, sample 2, input 5.8×10^13 pfu/L
  Elute phage titer Φe: 7.5×10^6 pfu/L
[2]; HSA-3, sample 2, input concentration printed 1.03×10^7 mol/L
  Elute phage concentration [Φ]e: 7.98e-13 mol/L
[2]; HSA-3, sample 3, input 3.36×10^13 pfu/L
  Elute phage titer Φe: 5.68×10^6 pfu/L
[2]; HSA-3, sample 3, input concentration printed 1.79×10^7 mol/L
  Elute phage concentration [Φ]e: 1.06e-14 mol/L
[2]; HSA-3, sample 4
  Elute phage concentration [Φ]e: 2.39e-14 mol/L
[2]; HSA-3, sample 4, input 2.16×10^13 pfu/L
  Elute phage titer Φe: 2.52×10^6 pfu/L
[2]; HSA-3, sample 5, input 1.52×10^13 pfu/L
  Elute phage titer Φe: 2×10^6 pfu/L
[2]; HSA-3, sample 5, input concentration printed 3.99×10^7 mol/L
  Elute phage concentration [Φ]e: 3.03e-14 mol/L

## ITPLPLR [HSA-4]
[1]
  Blank control phage titre: 5.22 × 10^5 pfu/ml
  Elute phage titre (HSA-coated well): 5.12 × 10^6 pfu/ml
[1]; titer of eluted phage from target coated well / from blank control well
  Specificity ratio: 9.8
[2]; HSA-4, sample 1, input 5.90×10^13 pfu/L
  Elute phage titer Φe: 5.0×10^6 pfu/L
[2]; HSA-4, sample 2, input 3.88×10^13 pfu/L
  Elute phage titer Φe: 4.32×10^6 pfu/L
[2]; HSA-4, sample 2, input concentration printed 1.55×10^7 mol/L
  Elute phage concentration [Φ]e: 1.4e-14 mol/L
[2]; HSA-4, sample 3, input 2.93×10^13 pfu/L
  Elute phage titer Φe: 2.87×10^6 pfu/L
[2]; HSA-4, sample 3, input concentration printed 2.05×10^7 mol/L
  Elute phage concentration [Φ]e: 2.1e-14 mol/L
[2]; HSA-4, sample 4, input 2.48×10^13 pfu/L
  Elute phage titer Φe: 2.8×10^6 pfu/L
[2]; HSA-4, sample 4, input concentration printed 2.44×10^7 mol/L
  Elute phage concentration [Φ]e: 2.2e-14 mol/L
[2]; HSA-4, sample 5, input 2.10×10^13 pfu/L
  Elute phage titer Φe: 2.16×10^6 pfu/L
[2]; HSA-4, sample 5, input concentration printed 2.86×10^7 mol/L
  Elute phage concentration [Φ]e: 2.8e-14 mol/L
[2]; read-out: Relative dissociation constant, phage-fused peptide vs immobilized HSA, double-reciprocal plot 1/[Φ]e vs 1/[Φ]t, linear regression, elution glycine-HCl pH 2.2
  Kd: 388 nM

B1: HSA-3 peptide fused phage (peptide)
peptide: AESQKLN
notes: DNA GCGGAGAGTTAGAAGCTTAAT (TAG printed as Q); Measured as the peptide on whole phage, not as a free peptide; source: M13 phage clone from the Ph.D.-7 library, amplified in E. coli ER2738, purified (PEG/NaCl precipitation)
[3]
  specificity ratio: 7.4
[4]
  Kd: 529 nM
